Tests used:
[1] = FAO/WHO Codex Alimentarius Commission, 1973; cited from earlier work
[2] = tested on: Helicobacter pylori ATCC 43504 strain
Protocol: Helicobacter pylori (ATCC 43504 strain, purchased from American Type Culture Collection) was cultured with use of a 96-well plate. […] After inoculation of Helicobacter pylori, the plate was introduced in a sealed vessel of 2.5 liter volume, into which Anaero Pack-Helico (made by Mitsubishi Gas Chemical), an agent for absorbing oxygen and generating carbon dioxide gas, was also introduced, and cultured for 5 days under an anaerobic condition at 37° C.
Growth of Helicobacter pylori was determined by means of a 96-well plate reader with use of a 540 nm or 595 nm filter. Herein, as a control for absorbance determination, a medium without EDTA was used.

Compound	acceptable daily intake (ADI) as a food additive [1]	concentration at which growth of Helicobacter pylori is inhibited ([2]; ATCC 43504 strain, medium pH 8.0, cultured 5 days at 37° C under anaerobic condition, turbidity at 540 nm or 595 nm against control medium, from FIG. 1 / FIG. 2)	amount to be taken to inhibit growth of Helicobacter pylori ([2]; calculated for a human stomach volume of about 1.5 L, amount of the salt)	amount to be taken to inhibit growth of Helicobacter pylori, as free EDTA ([2]; calculated for a human stomach volume of about 1.5 L, expressed as free EDTA)	growth-inhibiting concentration converted into ([2]; conversion of 0.025-1 mM using molecular weight 372Da)
O=C(O)CN(CCN(CC(=O)O)CC(=O)O)CC(=O)O [EDTA, Ethylenediaminetetraacetic acid]	2.5 mg/kg of weight				
O=C([O-])CN(CCN(CC(=O)O)CC(=O)O)CC(=O)[O-].[Na+].[Na+] [disodium ethylenediaminetetraacetate]		0.025 to 1 mM	14 to 558 mg	11 to 438 mg	9.3 to 372 mg/L

— patent publication US20020058696A1, “Chelate compound-containing antibacterial agent for helicobacter pylori” (DIRECTOR OF NTL. INST. OF AGROBIOLOGICAL RESOURCES , …, priority 2000, published 2002)
